According to patent US6841567B1, “Cyclic substituted fused pyrrolocarbazoles and isoindolones” (Cephalon, Inc., priority 1999, dated 2005):

molecular target: T1, baculovirus-expressed human trkA cytoplasmic domain (Homo sapiens, UniProt P04629); assay: Inhibition of trkA tyrosine kinase activity (ELISA-based assay); format: biochemical; conditions: 300 nM compound
T1 construct: baculovirus-expressed human trkA cytoplasmic domain; made in house; host or cells: baculovirus expression system
Experimental: Selected cyclic substituted fused pyrrolocarbazole and isoindolone compounds were tested for their ability to inhibit the kinase activity of baculovirus-expressed human trkA cytoplasmic domain using an ELISA-based assay as previously described (Angeles et al., Anal. Biochem. 236: 49-55, 1996). Briefly, the 96-well microtiter plate was coated with substrate solution (recombinant human phospholipase C-γ1/glutathione S-transferase fusion protein (Rotin et al., EMBO J., 11: 559-567, 1992). Inhibition studies were performed in 100 μl assay mixtures containing 50 mM Hepes, pH 7.4, 40 μM ATP, 10 mM MnCl2, 0.1% BSA, 2% DMSO, and various concentrations of inhibitor. The reaction was initiated by addition of trkA kinase and allowed to proceed for 15 minutes at 37° C. An antibody to phosphotyrosine (UBI) was then added, followed by a secondary enzyme-conjugated antibody, alkaline phosphatase-labelled goat antII-mouse IgG (Bio-Rad). The activity of the bound enzyme was measured via an amplified detection system (Gibco-BRL). Inhibition data were analyzed using the sigimoidal dose-response (variable slope) equation in GraphPad Prism.

T1 sequence (P04629 440-796 limits assumed): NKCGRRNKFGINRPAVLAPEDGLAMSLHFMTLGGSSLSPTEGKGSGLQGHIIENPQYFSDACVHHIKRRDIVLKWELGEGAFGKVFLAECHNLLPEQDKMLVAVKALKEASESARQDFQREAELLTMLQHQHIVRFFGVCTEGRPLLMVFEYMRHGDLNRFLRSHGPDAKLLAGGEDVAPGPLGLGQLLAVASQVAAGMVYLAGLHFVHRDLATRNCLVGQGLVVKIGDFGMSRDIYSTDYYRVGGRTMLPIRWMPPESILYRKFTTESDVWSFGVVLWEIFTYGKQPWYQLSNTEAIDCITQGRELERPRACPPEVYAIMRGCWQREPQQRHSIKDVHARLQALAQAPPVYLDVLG

| Compound | trkA kinase activity % Inh. @ 300 nM (values in parentheses) |
| --- | --- |
| CCN1CCCC(O)(C2c3ccccc3-c3c4c(c5c([nH]c6ccccc65)c32)CNC4=O)C1 (mixture of isomers) [II-16] | (38) % |
| C=C1COC(C)(C2c3ccccc3-c3c4c(c5c([nH]c6ccccc65)c32)CNC4=O)C1 (mixture of isomers) [II-25] | (27) % |
| CC1(C)OC2CC(O)(C3c4ccccc4-c4c5c(c6c([nH]c7ccccc76)c43)CNC5=O)OC2O1 (mixture of isomers) [II-48] | (46) % |
| CCOCc1ccc2c(c1)c1c3c(c4c(c1n2CC1CO1)Cc1ccccc1-4)C(=O)NC3 (racemic) [II-58] | (23) % |
| CC1(C2c3ccccc3-c3c4c(c5c([nH]c6ccccc65)c32)CNC4=O)CCCO1 (single isomer, unassigned) [II-30b] | (32) % |
| CCOC(=O)C1C(=O)CCC1C1c2ccccc2-c2c3c(c4c([nH]c5ccccc54)c21)C(=O)NC3=O (single isomer, unassigned) [II-56] | (12) % |
| O=C1NCc2c1c1c(c3[nH]c4ccccc4c23)C(C2CCCC2)c2ccccc2-1 (single isomer, unassigned) [II-59] | (10) % |
| O=C1NCc2c1c1c(c3[nH]c4ccccc4c23)C(C2(O)CCC2)c2ccccc2-1 (stereo not drawn) [II-18] | (45) % |
| CC(=O)N1CCC(O)(C2c3ccccc3-c3c4c(c5c([nH]c6ccccc65)c32)CNC4=O)CC1 (stereo not drawn) [II-24] | (34) % |

same assay, conditions: 40 μM ATP

| Compound | IC50 [nM] |
| --- | --- |
| COCCOCOCC1(C2c3ccccc3-c3c4c(c5c([nH]c6ccccc65)c32)CNC4=O)CCC(=O)O1 (mixture of isomers) [II-31] | 173 |
| O=C1NCc2c1c1c(c3[nH]c4ccccc4c23)C(C2OCCC2O)c2ccccc2-1 (mixture of isomers) [II-43] | 110 |
| O=C1NCc2c1c1c(c3c2c2ccccc2n3CC2CO2)Cc2ccccc2-1 (racemic) [II-01a] | 92 |
| O=C1CCCC(C2c3ccccc3-c3c4c(c5c([nH]c6ccccc65)c32)CNC4=O)O1 (stereo not drawn) [II-05] | 130 |
| O=C1NCc2c1c1c(c3[nH]c4ccccc4c23)C(C2(c3cccs3)CCCO2)c2ccccc2-1 (stereo not drawn) [II-09] | 134 |
| O=C1NCc2c1c1c(c3[nH]c4ccccc4c23)C(C2CSCC2O)c2ccccc2-1 (stereo not drawn) [II-11] | 139 |
| CC1(C2c3ccccc3-c3c4c(c5c([nH]c6ccccc65)c32)CNC4=O)CCCCO1 (stereo not drawn) [II-12] | 241 |
| O=C1NCc2c1c1c(c3[nH]c4ccccc4c23)C(C2CCCCO2)c2ccccc2-1 (stereo not drawn) [II-13] | 186 |
| CC(=O)OCC1(C2c3ccccc3-c3c4c(c5c([nH]c6ccccc65)c32)CNC4=O)CCCO1 (stereo not drawn) [II-22] | 95 |
| CC1(C2c3ccccc3-c3c4c(c5c([nH]c6ccccc65)c32)CNC4=O)CC(=O)CO1 (stereo not drawn) [II-27] | 166 |
| C=CC1(C2c3ccccc3-c3c4c(c5c([nH]c6ccccc65)c32)CNC4=O)CCCO1 (stereo not drawn) [II-28] | 138 |
| CC1(C2c3ccccc3-c3c4c(c5c([nH]c6ccccc65)c32)C(=O)NC4)CCCO1 (stereo not drawn) [II-37] | 191 |
| CCOC1CCC(C2c3ccccc3-c3c4c(c5c([nH]c6ccccc65)c32)CNC4=O)O1 (stereo not drawn) [II-40a] | 54 |
| O=C1CCC(C2c3ccccc3-c3c4c(c5c([nH]c6ccccc65)c32)CNC4=O)=NN1 (stereo not drawn) [II-49] | 321 |
| O=C1NCc2c1c1c(c3[nH]c4ccccc4c23)C(C2(O)CCCCC2)c2ccccc2-1 (stereo not drawn) [II-50] | 113 |
